Holding throughout (format): cell-based, human
Test [1] has as its system granulocytes. Description: enzyme activity with fluorogenic substrate, normal granulocytes (Table 3A).
Test [2] deals with monocytes. The test can be described thus: enzyme activity with fluorogenic substrate, normal monocytes (Table 3A).
Test [3] relates to monocytes. The test can be described thus: aberrant enzyme activities in febrile children, monocytes (Table 7).
Test [4] deals with lymphocytes. Description: enzyme activity with fluorogenic substrate, normal lymphocytes (Table 3A).
For test [5], the system named is granulocytes. Description: aberrant enzyme activities in febrile children, granulocytes (Table 7).
The test system of test [6] is lymphocytes. The test can be described thus: aberrant enzyme activities in febrile children, lymphocytes (Table 7).
[7] abbreviates: P89 Viral Stomatitis, listed as Val/Lys-M.
Where [8] appears, read: P95 Viral Syndrome, listed as Val/Lys-M.
[9] abbreviates: P96 Viral Syndrome, listed as Val/Lys-M.
Setting [10] is: P97 Pyelonephritis, listed as Val/Lys-M.
Where [11] appears, read: P88 Enteritis, listed as Z-Gly/Pro-M.

Numbered stars: 1 amine (or outer) side, 2 acyl side, 3 side chain; on linkers, the order of the positions; unused ones are H or OH. Bridge positions count the residues as written; N and C are the ends. Peptide text beside a SMILES is read from it. I, II: the chains in the order shown. Rhodamine110 = O=C1OC2(c3ccc(N[*:1])cc3Oc3cc(N[*:2])ccc32)c2ccccc21

Take `C[C@H](NC(=O)CNC(=O)[C@H](Cc1ccccc1)NC(=O)CN)C(=O)Nc1ccc2c(c1)Oc1cc(NC(=O)[C@H](C)NC(=O)CNC(=O)[C@H](Cc3ccccc3)NC(=O)CN)ccc1C21OC(=O)c2ccccc21` [GFGA, (Gly-Phe-Gly-Ala)2 Rho 110] (I: H-GFGA / II: H-GFGA; linker I:C-II:C via Rhodamine110): the “NORMAL LEUKOCYTE ENZYME ACTIVITY GRANS Mean” value with granulocytes [1] came out at 1.00. In addition, in the test on monocytes [2], the “NORMAL LEUKOCYTE ENZYME ACTIVITY MONOS Mean” value is 1.01. The “aberrant enzyme activity, MONOS” value with monocytes [3] (P88 Enteritis), in the test on monocytes [3] (P89 Viral Stomatitis), with monocytes [3] (P92 Adenitis), with monocytes [3] (P97 Pyelonephritis) and in the test on monocytes [3] (P103 Viral Syndrome) was “.smallcircle” throughout. In addition, the “NORMAL LEUKOCYTE ENZYME ACTIVITY LYMPHS Mean” value in the test with lymphocytes [4] is on record as 0.36. Besides, the “aberrant enzyme activity, GRANS” value with granulocytes [5] (P88 Enteritis), in the test on granulocytes [5] (P89 Viral Stomatitis), in the test on granulocytes [5] (P92 Adenitis), in the test on granulocytes [5] (P97 Pyelonephritis) and in the test on granulocytes [5] (P103 Viral Syndrome) was “.smallcircle” in each case. Also, the “aberrant enzyme activity, LYMPHS” value with lymphocytes [6] (P88 Enteritis), in the test with lymphocytes [6] (P89 Viral Stomatitis), in the test on lymphocytes [6] (P92 Adenitis), with lymphocytes [6] (P97 Pyelonephritis) and with lymphocytes [6] (P103 Viral Syndrome) was “.smallcircle” each time.
In the case of `CC(C)[C@H](N)C(=O)N[C@@H](CCCCN)C(=O)Nc1ccc2c(c1)Oc1cc(NC(=O)[C@H](CCCCN)NC(=O)[C@@H](N)C(C)C)ccc1C21OC(=O)c2ccccc21` [VK-M, (Val-Lys)2 Rho 110 (modified)], in the test on granulocytes [1], the “NORMAL LEUKOCYTE ENZYME ACTIVITY GRANS Mean” value was found to be 4.31. In the test with monocytes [2], the “NORMAL LEUKOCYTE ENZYME ACTIVITY MONOS Mean” value is 43.37. For the same compound, the “aberrant enzyme activity, MONOS” value is listed as “- (>0.25 Decrease over normal range)” in the test with monocytes [3] (P88 Enteritis); “.smallcircle” with monocytes [3] (setting [7]); “- (>0.25 Decrease over normal range)” in the test with monocytes [3] (P92 Adenitis, listed as Val/Lys-M); “.smallcircle” in the test on monocytes [3] (P95 Viral Syndrome); “.smallcircle” with monocytes [3] (P96 Viral Syndrome); “.smallcircle” with monocytes [3] (P97 Pyelonephritis). The “aberrant enzyme activity, MONOS” value is “- (>0.25 Decrease over normal range)” with monocytes [3] (P101 Fever -- Unknown Origin, listed as Val/Lys-M); “- (>0.25 Decrease over normal range)” in the test with monocytes [3] (P102 UTI); “.smallcircle” in the test with monocytes [3] (P103 Viral Syndrome, listed as Val/Lys-M). Besides, the “NORMAL LEUKOCYTE ENZYME ACTIVITY LYMPHS Mean” value in the test on lymphocytes [4] amounted to 2.05. Further, the “aberrant enzyme activity, GRANS” value is “- (>0.25 Decrease over normal range)” with granulocytes [5] (P88 Enteritis); “.smallcircle” in the test with granulocytes [5] (setting [7]); “.smallcircle” with granulocytes [5] (P92 Adenitis); “+ (>0.25 Increase over normal range)” in the test with granulocytes [5] (setting [8]); “+ (>0.25 Increase over normal range)” in the test on granulocytes [5] (setting [9]); “.smallcircle” with granulocytes [5] (setting [10]). In addition, the “aberrant enzyme activity, GRANS” value is “.smallcircle” with granulocytes [5] (P101 Fever -- Unknown Origin); “- (>0.25 Decrease over normal range)” in the test with granulocytes [5] (P102 UTI, listed as Val/Lys-M); “.smallcircle” with granulocytes [5] (P103 Viral Syndrome). Further, the “aberrant enzyme activity, LYMPHS” value is listed as “.smallcircle” with lymphocytes [6] (P88 Enteritis); “.smallcircle” with lymphocytes [6] (P89 Viral Stomatitis); “.smallcircle” with lymphocytes [6] (P92 Adenitis); “+ (>0.25 Increase over normal range)” in the test with lymphocytes [6] (setting [8]); “+ (>0.25 Increase over normal range)” in the test on lymphocytes [6] (setting [9]); “+ (>0.25 Increase over normal range)” with lymphocytes [6] (setting [10]). The “aberrant enzyme activity, LYMPHS” value with lymphocytes [6] (P101 Fever -- Unknown Origin), in the test on lymphocytes [6] (P102 UTI) and in the test with lymphocytes [6] (P103 Viral Syndrome) was “.smallcircle” throughout.
As to `O=C(NCC(=O)N1CCC[C@H]1C(=O)Nc1ccc2c(c1)Oc1cc(NC(=O)[C@@H]3CCCN3C(=O)CNC(=O)OCc3ccccc3)ccc1C21OC(=O)c2ccccc21)OCc1ccccc1` [Z-GP-M, (carbobenzyloxycarbonyl-Gly-Pro)2 Rho 110 (modified)], the “NORMAL LEUKOCYTE ENZYME ACTIVITY GRANS Mean” value in the test with granulocytes [1] is recorded as 130.62. Besides, in the test with monocytes [2], the “NORMAL LEUKOCYTE ENZYME ACTIVITY MONOS Mean” value was 119.81. Also, the “aberrant enzyme activity, MONOS” value with monocytes [3] (setting [11]) is recorded as “- (>0.25 Decrease over normal range)”; with monocytes [3] (P89 Viral Stomatitis), “.smallcircle”; with monocytes [3] (P92 Adenitis), “- (>0.25 Decrease over normal range)”; with monocytes [3] (P97 Pyelonephritis) it was “.smallcircle”; with monocytes [3] (P103 Viral Syndrome) it was “.smallcircle”. For the same compound, in the test with lymphocytes [4], the “NORMAL LEUKOCYTE ENZYME ACTIVITY LYMPHS Mean” value is listed as 53.74. Further, the “aberrant enzyme activity, GRANS” value in the test on granulocytes [5] (setting [11]) is listed as “- (>0.25 Decrease over normal range)”; in the test with granulocytes [5] (P92 Adenitis), “- (>0.25 Decrease over normal range)”; with granulocytes [5] (P97 Pyelonephritis), “.smallcircle”; with granulocytes [5] (P103 Viral Syndrome) it was “.smallcircle”. Further, the “aberrant enzyme activity, LYMPHS” value in the test with lymphocytes [6] (setting [11]) is listed as “- (>0.25 Decrease over normal range)”; with lymphocytes [6] (P89 Viral Stomatitis) it was “- (>0.25 Decrease over normal range)”; in the test on lymphocytes [6] (P92 Adenitis), “- (>0.25 Decrease over normal range)”; in the test with lymphocytes [6] (P97 Pyelonephritis, listed as Z-Gly/Pro-M), “- (>0.25 Decrease over normal range)”; in the test with lymphocytes [6] (P103 Viral Syndrome) it was “- (>0.25 Decrease over normal range)”.
`C[C@@H](O)[C@H](NC(=O)OCc1ccccc1)C(=O)N1CCC[C@H]1C(=O)Nc1ccc2c(c1)Oc1cc(NC(=O)[C@@H]3CCCN3C(=O)[C@@H](NC(=O)OCc3ccccc3)[C@@H](C)O)ccc1C21OC(=O)c2ccccc21` [Z-TP6.5M]: in the test with granulocytes [1], the “NORMAL LEUKOCYTE ENZYME ACTIVITY GRANS Mean” value turned out to be 55.07. Besides, the “NORMAL LEUKOCYTE ENZYME ACTIVITY MONOS Mean” value with monocytes [2] is 45.70. For the same compound, the “aberrant enzyme activity, MONOS” value in the test with monocytes [3] (P92 Adenitis) is “- (>0.25 Decrease over normal range)”; in the test on monocytes [3] (P97 Pyelonephritis) it was “.smallcircle”; in the test on monocytes [3] (P103 Viral Syndrome) it was “.smallcircle”. For the same compound, the “NORMAL LEUKOCYTE ENZYME ACTIVITY LYMPHS Mean” value in the test on lymphocytes [4] was found to be 20.62. Also, the “aberrant enzyme activity, GRANS” value was “- (>0.25 Decrease over normal range)” in the test on granulocytes [5] (P92 Adenitis), “.smallcircle” in the test with granulocytes [5] (P97 Pyelonephritis) and “.smallcircle” in the test on granulocytes [5] (P103 Viral Syndrome). The figures for the “aberrant enzyme activity, LYMPHS” value in the test with lymphocytes [6] (P92 Adenitis), in the test with lymphocytes [6] (P97 Pyelonephritis) and in the test on lymphocytes [6] (P103 Viral Syndrome) were “- (>0.25 Decrease over normal range)”, “.smallcircle” and “.smallcircle”, respectively.
Take `C[C@@H](O)[C@H](NC(=O)OCc1ccccc1)C(=O)N1CCC[C@H]1C(=O)Nc1ccc2c(c1)Oc1cc(NC(=O)[C@@H]3CCCN3C(=O)[C@@H](NC(=O)OCc3ccccc3)[C@@H](C)O)ccc1C21OC(=O)c2ccccc21` [Z-TP 8.7-M]: the “NORMAL LEUKOCYTE ENZYME ACTIVITY GRANS Mean” value in the test on granulocytes [1] came to 80.16. Further, in the test on monocytes [2], the “NORMAL LEUKOCYTE ENZYME ACTIVITY MONOS Mean” value is reported as 71.45. The “aberrant enzyme activity, MONOS” value with monocytes [3] (P92 Adenitis) is listed as “- (>0.25 Decrease over normal range)”; in the test on monocytes [3] (P97 Pyelonephritis), “.smallcircle”; in the test with monocytes [3] (P103 Viral Syndrome) it was “.smallcircle”. The “NORMAL LEUKOCYTE ENZYME ACTIVITY LYMPHS Mean” value in the test on lymphocytes [4] amounted to 30.99. Further, the “aberrant enzyme activity, GRANS” value with granulocytes [5] (P92 Adenitis) is “- (>0.25 Decrease over normal range)”; in the test on granulocytes [5] (P97 Pyelonephritis), “.smallcircle”; in the test on granulocytes [5] (P103 Viral Syndrome) it was “.smallcircle”. The “aberrant enzyme activity, LYMPHS” value in the test on lymphocytes [6] (P92 Adenitis) is “- (>0.25 Decrease over normal range)”; with lymphocytes [6] (P97 Pyelonephritis), “.smallcircle”; in the test with lymphocytes [6] (P103 Viral Syndrome), “.smallcircle”.

These data come from patent publication US5698411A, “Method for determining activity of enzymes in metabolically active whole cells” (priority 1995, dated 1997).
